pIC50: −log10 of the molar value. Like-named read-outs stand apart in the source and are kept apart here.
Assays:
[1] = Stability in 50% pooled human plasma in PBS (LCMS); format: in vitro ADME
Method: Stability studies. Pooled human plasma was diluted to 50% with phosphate buffered saline at pH 7.5. Test compounds were added at a final concentration of 100 μM in a volume of 100 μL. Compounds were incubated for various times as indicated in the text, then extracted with 300 μL of LCMS grade acetonitrile and vigorous mixing. Insoluble debris was pelleted by centrifugation at 10,000 rcf for 2 minutes. 10 μL of the extract was evaluated by LCMS with a Waters Synapt G2-Si Mass Spectrometer in positive mode using a gradient of water and acetonitrile and a C18 column. The gradient started at 25% acetonitrile then increased to 80% acetonitrile over 9 minutes and held there for 1 minute before re-equilibration. […] The integrated values of these peaks were compared to those of t=0 minutes in plasma for each test compound and expressed as a fraction of the initial compound that was remaining at a given time point.

human Vγ9Vδ2 T cells = assay: Expansion of Vγ9Vδ2 T cells from peripheral blood mononuclear cells; format: cell-based; details: ratio of expansion EC50 values
Method: Expansion of Vγ9Vδ2 T cells. […] Negative controls contained cells with interleukin 2 in the absence of test compounds. […] All experiments were performed at least three times using cells from at least two different donors.

in vitro = format: cell-based; details: human
Method: Cell viability. Viability assays were performed using K562 cells with various concentrations of test compounds. K562 cells (0.5×10^4 cells in 100 μL of RPMI media) were distributed into each well of a 96-well plate. Phosphonamidates were added for 72 hours, during the last 2 hours the cell-QB reagent was added, following which signals were quantified with a fluorescence plate reader. Viable cells were expressed as a percentage of untreated control cells after subtraction of a media-only blank.

Vγ9Vδ2 T cells = assay: ELISA for interferon γ: Vγ9Vδ2 T cells mixed with compound-loaded K562 cells; format: cell-based; details: Homo sapiens; K562 cells loaded for 4 hours with test compound; 3:1 effector:target; 20 hours; read-out: EC50 [μM] (95% CI), interferon γ production by Vγ9Vδ2 T cells
Method: ELISA for interferon γ. Interferon γ was measured by ELISA as previously described and according to manufacturer's directions (see Kilcollins, A. M., et al., J. Immunol. 2016, 197, 419-428; and Shippy, R. R., et al., J Med. Chem. 2017, 60, 2373-2382. Briefly, K562 cells were treated with test compounds for 4 hours, washed, then mixed with V79Vδ2 T cells that had been purified by negative selection. Each well contained a 3:1 effector: target ratio in 200 μL. After 20 hours, the concentration of interferon γ in the supernatant was determined. Data for representative compounds of the invention is shown in Table 2 (see FIG. 4).

[2] = cited from earlier work
[3] = 72 hour, read-out: IC50 [μM], cytotoxicity against K562 cells

## COC(=O)CNP(=O)(CC/C=C(\C)CO)Oc1ccccc1 (centres unmarked) [Compound 1, Methyl 2-[[[(E)-5-hydroxy-4-methyl-pent-3-enyl]-phenoxy-phosphoryl]amino]acetate]
[1]
  t1/2: >24 h
Human Vγ9Vδ2 T cells
  Fold difference vs cmpd 10: 2700
  Fold difference vs cmpd 11: 3.6
In vitro; [3]
  IC50 at 72 h: > 100 µM
Vγ9Vδ2 T cells
  EC50: 0.46 µM

## Oc1cccc2ccccc12 [Compound 1-naphthol, 1-naphthol, reference compound]
In vitro
  IC50 at 72 h: > 100 µM

## CCOC(=O)CNP(=O)(CC/C=C(\C)CO)Oc1ccccc1 (centres unmarked) [Compound 2, Ethyl 2-[[[(E)-5-hydroxy-4-methyl-pent-3-enyl]-phenoxy-phosphoryl]amino]acetate]
In vitro; [3]
  IC50 at 72 h: > 100 µM
Vγ9Vδ2 T cells
  EC50: 0.17 µM

## Oc1ccc2ccccc2c1 [Compound 2-naphthol, 2-naphthol, reference compound]
In vitro
  IC50 at 72 h: > 100 µM

## C/C(=C\CCP(=O)(NCC(=O)OC(C)C)Oc1ccccc1)CO (centres unmarked) [Compound 3, Isopropyl 2-[[[(E)-5-hydroxy-4-methyl-pent-3-enyl]-phenoxy-phosphoryl]amino]acetate]
[1]
  t1/2: >24 h
Human Vγ9Vδ2 T cells
  Fold difference vs cmpd 10: 3600
  Fold difference vs cmpd 11: 4.9
In vitro; [3]
  IC50 at 72 h: 23 µM
Vγ9Vδ2 T cells
  EC50: 0.74 µM

## COC(=O)CNP(=O)(CC/C=C(\C)CO)Oc1cccc2ccccc12 (centres unmarked) [Compound 4, Methyl 2-[[[(E)-5-hydroxy-4-methyl-pent-3-enyl]-(1-naphthyloxy)phosphoryl]amino]acetate]
[1]
  t1/2: >24 h
Human Vγ9Vδ2 T cells
  Fold difference vs cmpd 10: 9100
  Fold difference vs cmpd 11: 12
In vitro; [3]
  IC50 at 72 h: 40 µM
Vγ9Vδ2 T cells
  EC50: 0.13 µM

## CCOC(=O)CNP(=O)(CC/C=C(\C)CO)Oc1cccc2ccccc12 (centres unmarked) [Compound 5, Ethyl 2-[[[(E)-5-hydroxy-4-methyl-pent-3-enyl]-(1-naphthyloxy)phosphoryl]amino]acetate]
[1]
  t1/2: >24 h
Human Vγ9Vδ2 T cells
  Fold difference vs cmpd 10: 11000
  Fold difference vs cmpd 11: 15
In vitro; [3]
  IC50 at 72 h: 24 µM
Vγ9Vδ2 T cells
  EC50: 0.062 µM

## C/C(=C\CCP(=O)(NCC(=O)OC(C)C)Oc1cccc2ccccc12)CO (centres unmarked) [Compound 6, Isopropyl 2-[[[(E)-5-hydroxy-4-methyl-pent-3-enyl]-(1-naphthyloxy)phosphoryl]amino]acetate]
[1]
  t1/2: >24 h
Human Vγ9Vδ2 T cells
  Fold difference vs cmpd 10: 12000
  Fold difference vs cmpd 11: 16
In vitro; [3]
  IC50 at 72 h: > 100 µM
Vγ9Vδ2 T cells
  EC50: 0.29 µM

## COC(=O)CNP(=O)(CC/C=C(\C)CO)Oc1ccc2ccccc2c1 (centres unmarked) [Compound 7, Methyl 2-[[[(E)-5-hydroxy-4-methyl-pent-3-enyl]-(2-naphthyloxy)phosphoryl]amino]acetate]
[1]
  t1/2: >24 h
Human Vγ9Vδ2 T cells
  Fold difference vs cmpd 10: 6900
  Fold difference vs cmpd 11: 9.3
In vitro; [3]
  IC50 at 72 h: > 100 µM
Vγ9Vδ2 T cells
  EC50: 0.12 µM

## CCOC(=O)CNP(=O)(CC/C=C(\C)CO)Oc1ccc2ccccc2c1 (centres unmarked) [Compound 8, Ethyl 2-[[[(E)-5-hydroxy-4-methyl-pent-3-enyl]-(2-naphthyloxy)phosphoryl]amino]acetate]
[1]
  t1/2: >24 h
Human Vγ9Vδ2 T cells
  Fold difference vs cmpd 10: 7500
  Fold difference vs cmpd 11: 10
In vitro; [3]
  IC50 at 72 h: 28 µM
Vγ9Vδ2 T cells
  EC50: 0.093 µM

## C/C(=C\CCP(=O)(NCC(=O)OC(C)C)Oc1ccc2ccccc2c1)CO (centres unmarked) [Compound 9, Isopropyl 2-[[[(E)-5-hydroxy-4-methyl-pent-3-enyl]-(2-naphthyloxy)phosphoryl]amino]acetate]
[1]
  t1/2: >24 h
Human Vγ9Vδ2 T cells
  Fold difference vs cmpd 10: 4900
  Fold difference vs cmpd 11: 6.6
In vitro; [3]
  IC50 at 72 h: > 100 µM
Vγ9Vδ2 T cells
  EC50: 0.21 µM

## C/C(=C\CCP(=O)(OCOC(=O)C(C)(C)C)OCOC(=O)C(C)(C)C)CO [Compound 104, reference compound]
[1]
  t1/2: 0.14 h

## C/C(=C\COP(=O)(O)OP(=O)(O)O)CO [HMBPP]
[2]
  stability in plasma: not stable in plasma

## Oc1ccccc1 [Phenol, reference compound]
In vitro
  pIC50: < 4.00

From patent US11926641B2, “Phosphonamidate butyrophilin ligands” (UNIVERSITY OF IOWA RESEARCH FOUNDATION, priority 2018, dated 2024)
